Source: ChEMBL document CHEMBL1201862, “PubChem BioAssay data set” (2004)
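Protocol summary: plate cells (96-well), add compound at 5 concentrations, incubate 48 h, interpolate endpoints linearly. The concentration for 50% growth inhibition is given as GI50.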 The source made the active and inactive calls. Rule as the data show it: active = GI50 up to about 1.1 µM and inactive = higher.

Experiments:
Assay in all cases: NCI tumour cell line growth inhibition, 48 h
[1] = test system: NCI-H522
[2] = test system: SF-295
[3] = test system: OVCAR-3
[4] = test system: OVCAR-8
[5] = test system: CAKI-1
[6] = test system: PC-3
[7] = test system: SK-MEL-5
[8] = test system: SF-539
[9] = test system: A498
[10] = test system: OVCAR-5
[11] = test system: SN12C
[12] = test system: HL-60
[13] = test system: OVCAR-4
[14] = test system: MDA-N
[15] = test system: LOX IMVI
[16] = test system: SNB-75
[17] = test system: SK-MEL-28
[18] = test system: SR
[19] = test system: SF-268
[20] = test system: K562
[21] = test system: UO-31
[22] = test system: IGROV-1
[23] = test system: ACHN
[24] = test system: 786-0
[25] = test system: Hs-578T
[26] = test system: RPMI-8226
[27] = test system: U-251
[28] = test system: HCT-116
[29] = test system: KM12
[30] = test system: BT-549
[31] = test system: RXF 393
[32] = test system: SW-620
[33] = test system: SNB-19
[34] = test system: MDA-MB-231
[35] = test system: A549
[36] = test system: SK-MEL-2
[37] = test system: HCT-15
[38] = test system: HT-29
[39] = test system: NCI-H460
[40] = test system: EKVX
[41] = test system: UACC-257
[42] = test system: NCI-H226
[43] = test system: DU-145
[44] = test system: NCI-H23
[45] = test system: T47D
[46] = test system: M14
[47] = test system: MCF7
[48] = test system: Malme-3M
[49] = test system: MOLT-4
[50] = test system: HOP-62
[51] = test system: UACC-62
[52] = test system: HOP-92
[53] = test system: TK-10
[54] = test system: CCRF-CEM
[55] = test system: HCC 2998
[56] = test system: NCI/ADR-RES
[57] = test system: COLO 205
[58] = test system: SK-OV-3
[59] = test system: MDA-MB-435

In the case of COC(=O)c1c(C)cccc1/C=C1\Cc2cc(C)cc(C)c2C1=O, the GI50 [1] is reported as 11.2 µM (inactive), the GI50 [2] is reported as 21.7 µM (inactive) and the GI50 [3] is reported as 50.6 µM (inactive). For the same compound, the GI50 [4] was 63.8 µM (inactive), the GI50 [5] was > 100 µM (inactive) and the GI50 [6] was > 100 µM (inactive). For the same compound, the GI50 [7] was 32.3 µM (inactive), the GI50 [8] was 35.1 µM (inactive) and the GI50 [9] was 51.2 µM (inactive). The GI50 [10] was > 100 µM (inactive), the GI50 [11] was > 100 µM (inactive) and the GI50 [12] was > 100 µM (inactive). For the same compound, the GI50 [13] was 9.75 µM (inactive), the GI50 [14] was > 100 µM (inactive) and the GI50 [15] was > 100 µM (inactive). The GI50 [16] was 12.9 µM (inactive), the GI50 [17] was > 100 µM (inactive) and the GI50 [18] was > 100 µM (inactive). The GI50 [19] was 30.8 µM (inactive), the GI50 [20] was > 100 µM (inactive) and the GI50 [21] was > 100 µM (inactive). For the same compound, the GI50 [22] was 65.8 µM (inactive), the GI50 [23] was 27.9 µM (inactive) and the GI50 [24] was 16.3 µM (inactive). The GI50 [25] was 18.1 µM (inactive), the GI50 [26] was > 100 µM (inactive) and the GI50 [27] was 15.3 µM (inactive). The GI50 [28] was 36.8 µM (inactive), the GI50 [29] was > 100 µM (inactive) and the GI50 [30] was > 100 µM (inactive). The GI50 [31] was 20.7 µM (inactive), the GI50 [32] was > 100 µM (inactive) and the GI50 [33] was 18.5 µM (inactive). The GI50 [34] was > 100 µM (inactive), the GI50 [35] was 76.4 µM (inactive) and the GI50 [36] was 13.2 µM (inactive). For the same compound, the GI50 [37] was > 100 µM, the GI50 [38] was 89.5 µM (inactive) and the GI50 [39] was 98.4 µM (inactive). For the same compound, the GI50 [40] was 37.6 µM (inactive), the GI50 [41] was > 100 µM (inactive) and the GI50 [42] was 56.5 µM (inactive). For the same compound, the GI50 [43] was > 100 µM (inactive), the GI50 [44] was 51.1 µM (inactive) and the GI50 [45] was 31.7 µM (inactive). The GI50 [46] was 55 µM (inactive), the GI50 [47] was 25.8 µM (inactive) and the GI50 [48] was > 100 µM (inactive). The GI50 [49] was > 100 µM (inactive), the GI50 [50] was 12 µM (inactive) and the GI50 [51] was 10 µM (inactive). The GI50 [52] was 17.9 µM (inactive), the GI50 [53] was 27.2 µM (inactive) and the GI50 [54] was > 100 µM (inactive). For the same compound, the GI50 [55] was 82.2 µM (inactive).

Cc1nc(Cl)c2sc(=S)n(-c3ccc(F)cc3)c2n1 was tested, and the GI50 [1] was 2.84 µM (inactive), the GI50 [2] was 10.9 µM (inactive) and the GI50 [3] was 1.94 µM (inactive). For the same compound, the GI50 [4] was 14.6 µM (inactive), the GI50 [5] was 1.56 µM (inactive) and the GI50 [6] was 19.9 µM (inactive). The GI50 [7] was 3.04 µM (inactive), the GI50 [9] was 1.58 µM (inactive) and the GI50 [10] was 10.8 µM (inactive). For the same compound, the GI50 [11] was 5.52 µM (inactive), the GI50 [56] was 6.56 µM (inactive) and the GI50 [12] was 7.16 µM (inactive). The GI50 [13] was 13.6 µM (inactive), the GI50 [14] was 1.87 µM (inactive) and the GI50 [15] was 1.77 µM (inactive). The GI50 [16] was 1.44 µM (inactive), the GI50 [17] was 2.33 µM (inactive) and the GI50 [18] was 1.39 µM (inactive). For the same compound, the GI50 [19] was 1.81 µM (inactive), the GI50 [20] was 7.6 µM (inactive) and the GI50 [21] was 1.69 µM (inactive). The GI50 [22] was 1.74 µM (inactive), the GI50 [23] was 13.9 µM (inactive) and the GI50 [24] was 2.45 µM (inactive). For the same compound, the GI50 [25] was 1.86 µM (inactive), the GI50 [57] was 4.47 µM (inactive) and the GI50 [26] was 3.4 µM (inactive). For the same compound, the GI50 [27] was 5.06 µM (inactive), the GI50 [28] was 1.75 µM (inactive) and the GI50 [29] was 12.7 µM (inactive). The GI50 [30] was 2.59 µM (inactive), the GI50 [31] was 7.85 µM (inactive) and the GI50 [58] was 13.2 µM (inactive). The GI50 [32] was 3.7 µM (inactive), the GI50 [59] was 2.59 µM (inactive) and the GI50 [33] was 1.88 µM (inactive). The GI50 [34] was 7.98 µM (inactive), the GI50 [35] was 12.8 µM (inactive) and the GI50 [36] was 12.8 µM (inactive). For the same compound, the GI50 [37] was 3.21 µM, the GI50 [38] was 2.28 µM (inactive) and the GI50 [39] was 13.7 µM (inactive). For the same compound, the GI50 [40] was 13.2 µM (inactive), the GI50 [41] was 2.54 µM (inactive) and the GI50 [42] was 17.4 µM (inactive). The GI50 [43] was 1.51 µM (inactive), the GI50 [44] was 1.27 µM (inactive) and the GI50 [46] was 2.11 µM (inactive). For the same compound, the GI50 [47] was 2.84 µM (inactive), the GI50 [48] was 10.6 µM (inactive) and the GI50 [50] was 2.22 µM (inactive). For the same compound, the GI50 [51] was 11.8 µM (inactive), the GI50 [52] was 14.4 µM (inactive) and the GI50 [53] was 1.99 µM (inactive). The GI50 [54] was 2.72 µM (inactive) and the GI50 [55] was 4.49 µM (inactive).
